The results in this text go back to US8394828B2 (Janssen Pharmaceutica, NV, priority 2003, dated 2013).

Like-named read-outs stand apart in the source and are kept apart here.

Assay [1] has as its target T1, human VR1 (Homo sapiens, UniProt Q8NER1).
T1 construct: expressed in transfected cells; host or cells: HEK293
The experiment in a line: Human VR1 functional assay (intracellular Ca++, FLIPR, capsaicin challenge). It counts as cell-based. How it is done:
The functional activity of the test compounds was determined by measuring changes in intracellular calcium concentration using a Ca^++-sensitive fluorescent dye and FLIPR™ technology.
EC50 or IC50 values were determined from dose-response studies.

In assay [2] the target is T1, human VR1. Description: Human VR1 [3H] RTX binding assay. Conditions: for inhibition at 1 µM: compound at 1 μM; for Ki: hVR1. How it is done:
Compounds of the present invention were tested for their ability to inhibit the binding of [^3H] RTX to hVR1 receptors in a [^3H]
HEK293 cells were transfected with human VR1 vanilloid receptors and washed with Hank's Balanced Salt Solution, dissociated with cell dissociation buffer (Sigma), and then centrifuged at 1000×g for 5 min. […] The pelleted membranes were kept in an −80° C. freezer.
Approximately 120 μg protein/ml from membranes were incubated with indicated concentrations of [^3H] RTX in 0.5 ml of the HEPES buffer (pH 7.4) containing 0.25 mg/mL fatty acid-free bovine serum albumin at 37° C. for 60 min. […] The tip of the microcentrifuge tube containing the pellet was cut off. Bound radioactivity was quantified by scintillation counting. Non-specific binding was tested in the presence of 200 nM unlabeled RTX.

The mark [3] stands for this setting: FLIPR functional assay IC50 hVR1 60 min, 60 min.
Setting [4] is: hVR1, capsaicin challenge, read-out: FLIPR functional assay IC50 hVR1.
Setting [5] is: 3H-RTX binding, read-out: 3H-RTX binding assay Ki hVR1.

T1 sequence (Q8NER1 whole entry): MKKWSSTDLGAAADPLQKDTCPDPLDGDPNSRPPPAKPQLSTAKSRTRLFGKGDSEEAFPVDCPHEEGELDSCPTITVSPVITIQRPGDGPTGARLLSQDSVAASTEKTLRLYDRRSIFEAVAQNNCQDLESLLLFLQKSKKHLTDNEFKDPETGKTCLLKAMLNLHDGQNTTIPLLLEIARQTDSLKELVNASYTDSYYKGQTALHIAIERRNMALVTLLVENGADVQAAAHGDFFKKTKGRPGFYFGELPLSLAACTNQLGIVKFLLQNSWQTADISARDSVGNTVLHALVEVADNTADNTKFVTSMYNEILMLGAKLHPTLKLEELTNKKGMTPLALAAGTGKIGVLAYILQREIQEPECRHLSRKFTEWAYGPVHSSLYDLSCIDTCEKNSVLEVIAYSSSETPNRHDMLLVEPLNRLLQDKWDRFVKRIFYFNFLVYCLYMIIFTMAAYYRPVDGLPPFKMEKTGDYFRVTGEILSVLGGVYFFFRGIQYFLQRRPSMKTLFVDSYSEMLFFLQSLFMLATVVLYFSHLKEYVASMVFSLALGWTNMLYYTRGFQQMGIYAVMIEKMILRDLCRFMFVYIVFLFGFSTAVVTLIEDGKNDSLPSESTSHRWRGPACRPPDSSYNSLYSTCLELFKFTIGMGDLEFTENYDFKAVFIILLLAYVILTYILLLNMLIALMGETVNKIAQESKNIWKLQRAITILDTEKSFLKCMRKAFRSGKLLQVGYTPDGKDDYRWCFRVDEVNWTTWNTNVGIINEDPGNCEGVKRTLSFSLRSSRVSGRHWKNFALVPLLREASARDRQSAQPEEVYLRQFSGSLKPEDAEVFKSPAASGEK

The IC50 is the concentration that gives 50% inhibition. As usually defined, the inhibition is the change of the read-out against control, counted positive when it falls. Broadly, the Ki is the equilibrium dissociation constant of an inhibitor or competing ligand from its target. Turning to `O=C(Nc1cnc2ccccc2c1)c1ccc(N2CCCCCCC2)nc1` [6-Azocan-1-yl-N-quinolin-3-yl-nicotinamide], the IC50 in assay [1] (setting [3]) was 250 nM; in assay [1] (setting [4]), 5160 nM. Besides, in assay [2] (3H-RTX binding), the inhibition at 1 µM was 102%. Besides, the inhibition constant Ki in assay [2] (setting [5]) came to 30.4 nM.
With `CCCN(C)c1ccc(CCC(=O)Nc2cnc3ccccc3c2)cc1` [3-{4-(Methyl-propyl-amino)-phenyl}-N-quinolin-3-yl-propionamide], the IC50 in assay [1] (setting [4]) turned out to be 500 nM. Moreover, the inhibition constant (Ki) in assay [2] (setting [5]) turned out to be 196 nM.
Consider `CCCC1CCN(c2ccc(C(=O)Nc3cnc4ccccc4c3)cn2)CC1` [4-Propyl-3,4,5,6-tetrahydro-2H-{1,2′}bipyridinyl-5′-carboxylic acid quinolin-3-ylamide], for which, in assay [1] (setting [4]), the concentration for half-maximal inhibition (IC50) is 490 nM. The inhibition at 1 µM in assay [2] (3H-RTX binding) was 93%. The Ki in assay [2] (setting [5]) stood at 117 nM.
Consider `CN(Cc1ccccc1)c1ccc(C(=O)Nc2cnc3ccccc3c2)cc1` [4-(Benzyl-methyl-amino)-N-quinolin-3-yl-benzamide], for which the concentration for half-maximal inhibition (IC50) in assay [1] (setting [3]) worked out at 370 nM; in assay [1] (setting [4]), 2300 nM. The inhibition at 1 µM in assay [2] (3H-RTX binding) was found to be 98%. Also, in assay [2] (setting [5]), the Ki came out at 75.3 nM.
As for `O=C(Nc1cnc2ccccc2c1)c1ccc2c(c1)CCN2C(=O)C1CCCCC1` [1-Cyclohexanecarbonyl-2,3-dihydro-1H-indole-5-carboxylic acid quinolin-3-ylamide], the IC50 in assay [1] (setting [4]) was found to be 1500 nM. The inhibition at 1 µM in assay [2] (3H-RTX binding) worked out at 25%.
The corresponding values for `O=C(Nc1cnc2ccccc2c1)c1ccc(NCCc2ccccc2)cc1` [4-Phenethylamino-N-quinolin-3-yl-benzamide] are 9200 nM and 31%.
In the case of `CC1(C)CCC(C)(C)c2cc(CCC(=O)Nc3cnc4ccccc4c3)ccc21` [N-Quinolin-3-yl-3-(5,5,8,8-tetramethyl-5,6,7,8-tetrahydro-naphthalen-2-yl)-propionamide], the IC50 in assay [1] (setting [4]) turned out to be 70 nM. The inhibitory constant (Ki) in assay [2] (setting [5]) was 13 nM.
Regarding `O=C(Nc1cnc2ccccc2c1)c1ccc(N(Cc2ccccc2)Cc2ccccc2)cc1` [4-Dibenzylamino-N-quinolin-3-yl-benzamide], in assay [1] (setting [3]), 4200 nM corresponded to half-maximal inhibition (IC50). For the same compound, in assay [2] (3H-RTX binding), the inhibition at 1 µM was 51%. Further, the Ki in assay [2] (setting [5]) was found to be 441 nM.
The corresponding values for `CCC=CCCCCCN(C)c1ccc(C(=O)Nc2cnc3ccccc3c2)cc1` [4-(Methyl-non-6-enyl-amino)-N-quinolin-3-yl-benzamide] are 48 nM, 101% and 36.5 nM.
With `CCCCCNc1ccc(C(=O)Nc2cnc3ccccc3c2)c(Cl)c1` [2-Chloro-4-pentylamino-N-quinolin-3-yl-benzamide], the IC50 in assay [1] (setting [4]) was 10000 nM. Besides, in assay [2] (3H-RTX binding), the inhibition at 1 µM turned out to be 40%.
The corresponding values for `CC(=O)N1CCc2cc(C(=O)Nc3cnc4ccccc4c3)ccc21` [1-Acetyl-2,3-dihydro-1H-indole-5-carboxylic acid quinolin-3-ylamide] are 3150 nM and 1%.
Take `CCCC(=O)N1CCc2cc(C(=O)Nc3cnc4ccccc4c3)ccc21` [1-Butyryl-2,3-dihydro-1H-indole-5-carboxylic acid quinolin-3-ylamide]: the IC50 in assay [1] (setting [4]) is 1800 nM. For the same compound, the inhibition at 1 µM in assay [2] (3H-RTX binding) is 2%.
For the compound `CC(C)n1c(C(F)(F)F)nc2cc(C(=O)Nc3cnc4ccccc4c3)ccc21` [1-Isopropyl-2-trifluoromethyl-1H-benzoimidazole-5-carboxylic acid quinolin-3-ylamide], in assay [1] (setting [4]), the IC50 was 8000 nM. Further, the Ki in assay [2] (setting [5]) amounted to 364 nM.
As for `O=C(Nc1cnc2ccccc2c1)c1ccc(N2CCCCC2)nc1` [3,4,5,6-Tetrahydro-2H-{1,2′}bipyridinyl-5′-carboxylic acid quinolin-3-ylamide], the concentration for half-maximal inhibition (IC50) in assay [1] (setting [3]) came to 140 nM; in assay [1] (setting [4]) it was 4300 nM. The inhibition constant (Ki) in assay [2] (setting [5]) amounted to 20.5 nM.
For the compound `CN(c1ccc(CCC(=O)Nc2cnc3ccccc3c2)cc1)C1CCCCC1` [3-{4-(Cyclohexyl-methyl-amino)-phenyl}-N-quinolin-3-yl-propionamide], the IC50 in assay [1] (setting [4]) is 3900 nM. The inhibition at 1 µM in assay [2] (3H-RTX binding) worked out at 51%. For the same compound, in assay [2] (setting [5]), the inhibition constant Ki was found to be 1170 nM.
Turning to `CCCN(CCc1ccccc1)c1ccc(C(=O)Nc2cnc3ccccc3c2)cc1` [4-(Phenethyl-propyl-amino)-N-quinolin-3-yl-benzamide], in assay [1] (setting [3]), the half-inhibitory concentration (IC50) came to 360 nM. The inhibition at 1 µM in assay [2] (3H-RTX binding) was 105%. Moreover, the Ki in assay [2] (setting [5]) is 71.6 nM.
For `CC1CC(C)CN(c2ccc(C(=O)Nc3cnc4ccccc4c3)cc2)C1` (stereo not shown) [4-(3,5-Dimethyl-piperidin-1-yl)-N-quinolin-3-yl-benzamide], the IC50 in assay [1] (setting [4]) was 1800 nM. The inhibition at 1 µM in assay [2] (3H-RTX binding) was found to be 91%. Also, the Ki in assay [2] (setting [5]) was found to be 86.1 nM.
As for `CCN(c1ccc(C(=O)Nc2cnc3ccccc3c2)cc1)C1CCCCC1` [4-(Cyclohexyl-ethyl-amino)-N-quinolin-3-yl-benzamide], the IC50 in assay [1] (setting [4]) was 300 nM. For the same compound, the Ki in assay [2] (setting [5]) was determined as 12.6 nM.
For the compound `O=C(Nc1cnc2ccccc2c1)c1ccc(N2CCCCCCC2)cc1` [4-Azocan-1-yl-N-quinolin-3-yl-benzamide], the IC50 in assay [1] (setting [4]) is 290 nM. Also, in assay [2] (setting [5]), the Ki worked out at 18.5 nM.
On to `CCCCC(C)(C)c1cc(OC)c(CCC(=O)Nc2cnc3ccccc3c2)c(OC)c1` [3-{4-(1,1-Dimethyl-pentyl)-2,6-dimethoxy-phenyl}-N-quinolin-3-yl-propionamide], for which, in assay [1] (setting [4]), the IC50 worked out at 1000 nM. Also, the Ki in assay [2] (3H-RTX binding assay Ki hVR1, 3H-RTX binding) came to 10.6 nM. In assay [2] (3H-RTX binding), the inhibition at 1 µM was determined as 96%.
Take `O=C(Nc1cnc2ccccc2c1)c1cccc(NC2CCCCC2)c1` [3-Cyclohexylamino-N-quinolin-3-yl-benzamide]: in assay [1] (setting [4]), the IC50 is 3200 nM. Further, the inhibition at 1 µM in assay [2] (3H-RTX binding) was found to be 1%.
Turning to `CN1CCCc2cc(C(=O)Nc3cnc4ccccc4c3)ccc21` [1-Methyl-1,2,3,4-tetrahydro-quinoline-6-carboxylic acid quinolin-3-ylamide], the half-inhibitory concentration (IC50) in assay [1] (setting [4]) was determined as 690 nM. Further, in assay [2] (3H-RTX binding), the inhibition at 1 µM is 79%. The Ki in assay [2] (setting [5]) was determined as 341 nM.
The corresponding values for `CC(C)(C)C1CCC(C(=O)Nc2cnc3ccccc3c2)CC1` (stereo not shown) [4-tert-Butyl-cyclohexanecarboxylic acid quinolin-3-ylamide] are 10000 nM, 97% and 64.9 nM.
Turning to `CCCCOc1ccc(C(=O)Nc2cnc3ccccc3c2)cc1` [4-Butoxy-N-quinolin-3-yl-benzamide], in assay [1] (setting [4]), the half-inhibitory concentration (IC50) amounted to 10000 nM. Besides, the inhibitory constant (Ki) in assay [2] (setting [5]) is 155 nM.
For the compound `CN1CCc2cc(C(=O)Nc3cnc4ccccc4c3)ccc21` [1-Methyl-2,3-dihydro-1H-indole-5-carboxylic acid quinolin-3-ylamide], in assay [1] (setting [4]), the IC50 was found to be 900 nM. In addition, the inhibition at 1 µM in assay [2] (3H-RTX binding) is 12%.
Take `O=C(Nc1cnc2ccccc2c1)c1ccc(N2CCC(Cc3ccccc3)CC2)nc1` [4-Benzyl-3,4,5,6-tetrahydro-2H-{1,2′}bipyridinyl-5′-carboxylic acid quinolin-3-ylamide]: the half-maximal inhibitory concentration (IC50) in assay [1] (setting [4]) turned out to be 440 nM. For the same compound, the inhibition at 1 µM in assay [2] (3H-RTX binding) was found to be 100%. Moreover, in assay [2] (setting [5]), the inhibition constant Ki stood at 25.6 nM.
The corresponding values for `CN(CC1CCCCC1)c1ccc(C(=O)Nc2cnc3ccccc3c2)cc1` [4-(Cyclohexylmethyl-methyl-amino)-N-quinolin-3-yl-benzamide] are 1700 nM, 104% and 15.7 nM.
For the compound `CCC(C)c1ccc(CCC(=O)Nc2cnc3ccccc3c2)cc1` (stereo not shown) [3-(4-sec-Butyl-phenyl)-N-quinolin-3-yl-propionamide], the half-inhibitory concentration (IC50) in assay [1] (setting [4]) stood at 1200 nM. Moreover, the Ki in assay [2] (setting [5]) is 13.9 nM.
`CCCCN(CCCC)c1ccc(C(=O)Nc2cnc3ccccc3c2)cc1` [4-Dibutylamino-N-quinolin-3-yl-benzamide]: the 50% inhibitory concentration (IC50) in assay [1] (setting [3]) came out at 270 nM; in assay [1] (setting [4]), 4600 nM. Moreover, the Ki in assay [2] (setting [5]) was determined as 241 nM.
In the case of `CCCCCCCNc1ccccc1C(=O)Nc1cnc2ccccc2c1` [2-Heptylamino-N-quinolin-3-yl-benzamide], the results for the half-maximal inhibitory concentration (IC50) in assay [1] (setting [3]) and in assay [1] (setting [4]) were 5000 nM and 1600 nM, respectively. The inhibition at 1 µM in assay [2] (3H-RTX binding) worked out at 79%. Further, the Ki in assay [2] (setting [5]) is 1120 nM.
The corresponding values for `O=C(Nc1cnc2ccccc2c1)c1ccc(N2CC[C@@H]3CCCC[C@@H]3C2)cc1` (relative stereo) [cis-4-(Octahydro-isoquinolin-2-yl)-N-quinolin-3-yl-benzamide] are 220 nM, 185 nM, 105% and 45.6 nM.
Consider `CN(CCc1ccccc1)c1ccc(CCC(=O)Nc2cnc3ccccc3c2)cc1` [3-[4-(Methyl-phenethyl-amino)-phenyl]-N-quinolin-3-yl-propionamide], for which, in assay [1] (setting [4]), the half-inhibitory concentration (IC50) is 180 nM. In addition, in assay [2] (3H-RTX binding), the inhibition at 1 µM turned out to be 90%. The inhibitory constant (Ki) in assay [2] (setting [5]) was 192 nM.
The compound `CCCCCC=CCCCN(C)c1ccc(C(=O)Nc2cnc3ccccc3c2)cc1` [4-(Dec-4-enyl-methyl-amino)-N-quinolin-3-yl-benzamide] gave a half-maximal inhibitory concentration (IC50) in assay [1] (setting [3]) of 66 nM. The inhibition at 1 µM in assay [2] (3H-RTX binding) was 104%. For the same compound, the inhibition constant (Ki) in assay [2] (setting [5]) turned out to be 23.1 nM.
Turning to `CC(C)(c1ccc(CCC(=O)Nc2cnc3ccccc3c2)cc1)C1CCCCC1` [3-{4-(1-Cyclohexyl-1-methyl-ethyl)-phenyl}-N-quinolin-3-yl-propionamide], in assay [1] (setting [4]), the concentration for half-maximal inhibition (IC50) was 570 nM. Besides, the inhibition constant (Ki) in assay [2] (setting [5]) amounted to 31.5 nM.
In assay [1] (setting [3]), `CC(C)=CCC[C@H](C)CCN(C)c1ccc(C(=O)Nc2cnc3ccccc3c2)cc1` displayed an IC50 of 150 nM. Also, the inhibition at 1 µM in assay [2] (3H-RTX binding) came to 105%. Moreover, in assay [2] (setting [5]), the Ki was determined as 12.9 nM.
